As a reminder, the MIC is the lowest concentration found to suppress growth.

Read-outs that look alike come from different tables or passages of the source.

One test deals with Poria placenta. Put plainly: Limit of activity against wood-destroying Basidiomycetes (EN 113). The note with it: Poria placenta strain 96, pine, isopropanol/water (1:1), 16 weeks. Further details: species or system Poria placenta (Fries) Cooke sensu. J. Eriksson. The text has this: (§1) Determination of the limit of the activity against wood-destroying Basidiomycetes bred on agar (in accordance with EN 113). The test methods described in this European Standard is a laboratory method which forms a basis for evaluation of the activity of a wood preservative against wood-destroying Basidiomycetes.
Poria placenta (Fries) Cooke sensu. J. Eriksson, strain SPRL 280, for soft timbers=strain 96, Breeding of the strain and composition of the nutrient medium were as described in EN 113.
(§2) Solutions of isopropanol/water (1:1) containing 0.2%, 0.5%, 1%, 2% and 5% of active substance according to Example 1 are prepared.
(§3) The specimen woods of pine, nominal dimensions: 50 mm×25 mm×15 mm, are obtained and prepared as described in EN 113.
(§4) The impregnation according to EN 113 ensures complete thorough impregnation of the specimen woods with the wood preservative solution.
(§5) The amount of preservative absorbed is converted into weight per unit volume of the wood. […]
(§6) The limit of the activity of a wood preservative is determined by the two amounts of wood preservative which correspond to the lowest concentration which preserves the wood and the next lowest concentration in the series, at which the wood is no longer adequately preserved. […]

Test [1] relates to Coniophora puteana. The test is described as above. The arrangement: species or system Coniophora puteana (Schumacher ex Fries) Karsten. The settings on record: Coniophora puteana strain 91, pine, isopropanol/water (1:1), 16 weeks.
Excerpt: as §1
Coniophora puteana (Schumacher ex Fries) Karsten, strain FPRL 11E, for soft timbers=strain 91, Breeding of the strain and composition of the nutrient medium were as described in EN 113.
as §2, §3, §4, §5, §6

The next test concerns Chaetomium globosum. Kind of test: Determination of the MIC against fungi, agar incorporation test. The test is classed as cell-based. The note with it: for MIC: read-out: MIC against fungi, strain D. The procedure:
(§7) Strains: A) Aspergillus niger, B) Sacharomyces cerevisiae, C) Penicillium funiculosum, D) Chaetomium globosum, E) Aureobasidium pullulans and F) Coniophora puteana.
(§8) The investigation is carried out by the known agar incorporation test in malt extract agar (Merck). For the inhibition, the various compounds are in each case added in an amount such that concentrations of 10, 50 and 100 mg/1 result in the agar. The concentrations (mg/1) required for inhibiting the growth of the fungi (starting from fungus spores dripped on) are illustrated in Table 2.

The subject of the next test is Aspergillus niger. The description is as above. The test is classed as cell-based. The note with it: for MIC: read-out: MIC against fungi, strain A. How it is done: as §7, §8
For test [2], the system named is Coniophora puteana. Described as above. The settings on record: for MIC: read-out: MIC against fungi, strain F. The test is classed as cell-based. The procedure: as §7, §8
The next test has as its system wood-destroying fungi. Put plainly: Limit of activity against wood-destroying Basidiomycetes (EN 113), summary.
Excerpt: as §1

For test [3], the system named is mixture of algae Chlorella vulgaris, Chlorella spec. and Scenedesmus obliques. Kind of test: Algicide test in polyisobutylene roof sheeting. The test is classed as cell-based. The note with it: for algae growth after 6 weeks: comparison film 2; for algae growth after 3 weeks: comparison film 2-3. How it is done: To test the activity against attack by algae, various concentrations, which can be seen from Table 3, of the compound according to Example 1 are incorporated into roof sheeting consisting of polyisobutylene. A roof sheeting without biocide is investigated as a comparison.
A 1 cm^2 piece of film from each test strip is kept in water for 5 days, in each case placed on an algae agar plate and inoculated with 0.1 ml of a 1+1+1 mixture of 14-day cultures of the algae Chlorella vulgaris and Chlorella spec. (isolated from damage cases in practice) and Scenedesmus obliques, which had been diluted 1/10 in saline.
After 3 weeks, the plates are evaluated and the films are placed in fresh agar and inoculated again.
Evaluation of the growth after 3 and 6 weeks under artificial light is performed in accordance with the following scheme.
2=partial growth on the film
3=growth up to the edge of the film
4=inhibiting aerola around the film <5 mm
5=inhibiting aerola around the film >5 mm
Example 19 is repeated, except that instead of the stated concentrations of compound according to Example 1 alone, a combination of 1% by weight of the compound according to Example 1 and 0.07% by weight of 2-methylthio-4-t-butylamino-6-cyclopropylamino-s-triazine is used.

For a further test, the system named is Aureobasidium pullulans. Kind of test: Determination of the MIC against fungi, agar incorporation test. The test is classed as cell-based. The settings on record: for MIC: read-out: MIC against fungi, strain E. The procedure: as §7
(§9) The investigation is carried out by the known agar incorporation test in malt extract agar (Merck).

In a further test the test system is Penicillium funiculosum. Described as above. The test is classed as cell-based. The settings on record: for MIC: Talaromyces funiculosus, read-out: MIC against fungi, strain C. How it is done: as §7, §9
The test system of the next test is Sacharomyces cerevisiae. Described as above. The test is classed as cell-based. The settings on record: for MIC: read-out: MIC against fungi, strain B. How it is done: as §7, §9
Another test concerns Gleophyllum trabeum. Kind of test: Limit of activity against wood-destroying Basidiomycetes (EN 113). The arrangement: species or system Gloeophyllum trabeum (Persoon ex Fries) Murrill. The note with it: Gleophyllum trabeum strain 94, pine, 16 weeks.
Excerpt: as §1
Gloeophyllum trabeum (Persoon ex Fries) Murrill, strain […], for soft timbers=strain 94, Breeding of the strain and composition of the nutrient medium were as described in EN 113.
as §2, §3, §4, §5, §6

The subject of another test is barnacles. Put plainly: Anti-fouling paint exposure in the North Sea. The settings on record: 61/2 weeks, 0 = completely covered with growth, 10 = completely free. The procedure:
(§10) To test the activity against growth on objects immersed in the sea, the compound according to Example 1 is incorporated into anti-fouling paints. An anti-fouling paint such as is known to the expert and which is based on vinyl chloride copolymer/rosin (2/1 part by weight) with a pigment volume concentration of about 40%, and a second anti-fouling paint of similar make-up but with a higher rosin content (vinyl chloride copolymer/rosin=1/1) are prepared. The compound according to Example 1 is incorporated into these paints, the paint is brushed onto specimen sheets and, after drying (10 days), the sheets are suspended in the North Sea. The corresponding paints but without adding of the product are exposed in the same way for comparison. On a rating scale of 0 (=completely covered with growth) to 10 (=completely free from growth), the following results are obtained after exposure for 61/2 weeks (growth by hydroids=HY; growth by barnacles=BA): […]

The test system of another test is hydroids. Kind of test: Anti-fouling paint exposure in the North Sea. The note with it: 61/2 weeks, 0 = completely covered with growth, 10 = completely free. The procedure:
as §10

The mark [4] stands for this setting: malt extract agar, tested 10, 50, 100 mg/l.
[5] abbreviates: Penicillium funiculosum, malt extract agar, tested 10, 50, 100 mg/l.
Where [6] appears, read: Sacharomyces cerevisiae, malt extract agar, tested 10, 50, 100 mg/l.

As to `CCCCCCCCCCCCCC[P+](CCCC)(CCCC)CCCC` [Example 1, Tri-n-butyl-n-tetradecylphosphonium tetrafluoborate], the Effective concentration in the test with Poria placenta is on record as 1.0-2.0%; in the test with Coniophora puteana [1], 0.5-1.0%; in the test with Gleophyllum trabeum (isopropanol/water (1:1)), no more than 0.2%. Further, the “MIC against fungi, strain D” value in the test with Chaetomium globosum (setting [4]) is 10 µg/mL. The MIC is 50 µg/mL in the test with Aspergillus niger (setting [4]), 50 µg/mL in the test on Aureobasidium pullulans (setting [4]), 10 µg/mL in the test with Penicillium funiculosum (setting [5]) and 10 µg/mL in the test with Sacharomyces cerevisiae (setting [6]). Further, the “MIC against fungi, strain F” value in the test on Coniophora puteana [2] (setting [4]) stood at 10 µg/mL. The “activity against wood-destroying fungi” value in the test with wood-destroying fungi was “highly effective”. For the same molecule, the “algae growth after 6 weeks” value in test [3] (0,1 % by weight in film), in [3] (0,5 % by weight in film) and in [3] (1 % by weight in film) was 4 (inhibiting aerola around the film <5 mm) throughout. For the same molecule, the “algae growth after 3 weeks” value in test [3] (0,1 % by weight in film), in [3] (0,5 % by weight in film) and in test [3] (1 % by weight in film) was 4 (inhibiting aerola around the film <5 mm) throughout. Further, the “Take-up (limit of the activity)” value in the test with Gleophyllum trabeum was no more than 1.0 kg/m^3. Further, the “growth by barnacles (BA), rating” value came to 10 with barnacles (Vinyl/rosin 1:1 paint with additive, without additive BA 0) and 8 in the test on barnacles (Vinyl/rosin 2:1 paint with additive, without additive BA 5). The “growth by hydroids (HY), rating” value in the test with hydroids (Vinyl/rosin 1:1 paint with additive, without additive HY 0) came to 4; in the test on hydroids (Vinyl/rosin 2:1 paint with additive, without additive HY 5), 8.
With `CCCCCCCCCCCCCC[P+](CCCC)(CCCC)CCCC` [Example 2, Tri-n-butyl-n-tetradecylphosphonium hexafluophosphate], in the test with Chaetomium globosum (setting [4]), the “MIC against fungi, strain D” value was 100 µg/mL. Besides, the “MIC against fungi, strain A” value in the test on Aspergillus niger (setting [4]) came out at 100 µg/mL. Moreover, in the test with Coniophora puteana [2] (setting [4]), the “MIC against fungi, strain F” value worked out at 100 µg/mL. In addition, the “MIC against fungi, strain E” value with Aureobasidium pullulans (setting [4]) is 50 µg/mL. Besides, in the test on Penicillium funiculosum (setting [5]), the “MIC against fungi, strain C” value was determined as 10 µg/mL. Moreover, the “MIC against fungi, strain B” value against Sacharomyces cerevisiae (setting [6]) was found to be 10 µg/mL.
Turning to `CCCCCCCCCCCC[P+](c1ccccc1)(c1ccccc1)c1ccccc1` [Example 3, Triphenyl-n-dodecylphosphonium tetrafluoborate], the minimal inhibitory concentration (MIC) is 50 µg/mL in the test with Chaetomium globosum; 100 µg/mL in the test with Aspergillus niger; 50 µg/mL in the test on Coniophora puteana [2]; 10 µg/mL with Aureobasidium pullulans; 10 µg/mL in the test on Penicillium funiculosum; 50 µg/mL in the test with Sacharomyces cerevisiae.
On to `CCCCCCCCCCCCCC[N+](CCCC)(CCCC)CCCC` [Example 5, Tri-n-butyl-n-tetradecylammonium tetrafluoborate], for which the MIC stood at 50 µg/mL in the test on Chaetomium globosum (setting [4]); 100 µg/mL in the test with Aspergillus niger; 100 µg/mL in the test with Coniophora puteana [2]; 50 µg/mL in the test on Aureobasidium pullulans (setting [4]); 50 µg/mL in the test with Penicillium funiculosum (setting [5]); 50 µg/mL with Sacharomyces cerevisiae (setting [6]).
Regarding `CCCCCCCCCCCC[N+](CCO)(CCO)Cc1ccccc1` [Example 6, Bis(hydroxyethyl)benzyl-n-dodecylammonium tetrafluoborate], the MIC was 50 µg/mL with Chaetomium globosum (setting [4]); greater than 100 µg/mL in the test with Aspergillus niger; 50 µg/mL with Coniophora puteana [2] (setting [4]); 10 µg/mL with Aureobasidium pullulans (setting [4]); 10 µg/mL in the test with Penicillium funiculosum (setting [5]); 50 µg/mL in the test on Sacharomyces cerevisiae (setting [6]).
Turning to `CCCCCCCCCCCC[N+](CC)(CC)CC` [Example 7], the minimal inhibitory concentration (MIC) in the test with Chaetomium globosum (setting [4]) was 100 µg/mL; in the test with Aspergillus niger (setting [4]), greater than 100 µg/mL; in the test with Coniophora puteana [2] (setting [4]), 50 µg/mL; in the test with Aureobasidium pullulans (setting [4]), 50 µg/mL; in the test with Penicillium funiculosum (setting [5]) it was 50 µg/mL; in the test with Sacharomyces cerevisiae (setting [6]) it was greater than 100 µg/mL.
On to `CCCCCCCCCCCCCC[N+](CC)(CC)CC` [Example 8], for which the minimal inhibitory concentration (MIC) in the test on Chaetomium globosum (setting [4]), with Aspergillus niger (setting [4]) and in the test with Coniophora puteana [2] (setting [4]) was 50 µg/mL throughout.
In the case of `CCCCCCCCCCCCCCCCCC[N+](CC)(CC)CC` [Example 9], the minimum inhibitory concentration (MIC) in the test with Chaetomium globosum (setting [4]) is 50 µg/mL; in the test with Aspergillus niger (setting [4]) it was greater than 100 µg/mL; in the test with Coniophora puteana [2] (setting [4]) it was 50 µg/mL; with Aureobasidium pullulans (setting [4]), 50 µg/mL; in the test with Penicillium funiculosum (setting [5]) it was 50 µg/mL; with Sacharomyces cerevisiae (setting [6]) it was greater than 100 µg/mL.
Regarding `CCCCCCCCCCCCCC[N+](CCC)(CCC)CCC` [Example 10], the minimum inhibitory concentration (MIC) in the test with Chaetomium globosum (setting [4]) came out at 50 µg/mL; with Aspergillus niger (setting [4]), 100 µg/mL; in the test on Coniophora puteana [2] (setting [4]) it was 10 µg/mL; in the test with Aureobasidium pullulans (setting [4]), 10 µg/mL; in the test with Penicillium funiculosum (setting [5]) it was 50 µg/mL; in the test with Sacharomyces cerevisiae (setting [6]), 100 µg/mL.
With `CCCCCCCCCCCCCCCC[N+](CC)(CC)CC` [Example 13], the MIC in the test with Chaetomium globosum (setting [4]) turned out to be 100 µg/mL; in the test with Aspergillus niger (setting [4]) it was 100 µg/mL; in the test on Coniophora puteana [2] (setting [4]) it was 10 µg/mL; with Aureobasidium pullulans (setting [4]) it was 50 µg/mL; with Penicillium funiculosum (setting [5]), 10 µg/mL; in the test on Sacharomyces cerevisiae (setting [6]) it was 100 µg/mL.
Turning to `CCCCCCCCCCCC[N+]1(Cc2ccccc2)CCOCC1` [Example 14], the minimal inhibitory concentration (MIC) was 100 µg/mL in the test on Chaetomium globosum; greater than 100 µg/mL with Aspergillus niger; 50 µg/mL with Coniophora puteana [2] (setting [4]); 10 µg/mL with Aureobasidium pullulans; 50 µg/mL with Penicillium funiculosum (setting [5]); greater than 100 µg/mL in the test on Sacharomyces cerevisiae.
